Test results: patent publication US4952572A (priority 1989, dated 1990)

Tests used:
Cryptococcus neoformans = test: In vitro antifungal activity, summary; type: cell-based; conditions: relative to BU-3420T acetate
Moser cells = test: In vitro cytotoxicity, neutral red; type: cell-based, human
Solubility = type: physicochemical
Gram-negative organisms = type: cell-based; conditions: in words; relative to Gram-positive aerobic bacteria
[1] = test system: Gram-positive aerobic bacteria; type: cell-based; conditions: in words
[2] = test system: Staphylococcus aureus Smith; test: In vivo activity against S. aureus Smith infection (ip) in mice; conditions: im, single
Description: Mice were challenged intraperitoneally with 100 times the lethal dose of the pathogen in a 5% suspension of hog gastric mucin (American Laboratory, Omaha, Neb.). BU-3420T was administered to mice intramuscularly just before the bacterial challenge.

[3] = Acute toxicity in mice, intramuscular; type: in vivo; conditions: 5 mg/kg
[4] = test system: murine and human tumor cell lines; test: In vitro cytotoxicity, summary; conditions: in words
Description: (§1) On the other hand, the cytotoxic activities against P388 and P388/VCR cells were determined by counting the number of viable cells.

P388/VCR cells = test: In vitro cytotoxicity, viable cell count; conditions: in words
Description: as §1

SMILES: C[C@@H]1[C@H](O)[C@@H](C)/C=C/C=C/C=C/C=C/C=C/C=C/C=C/[C@H](O[C@@H]2O[C@H](C)[C@@H](O)[C@H](N)[C@@H]2O)C[C@@H]2O[C@](O)(C[C@@H](O)C[C@@H](O)[C@H](O)CC[C@@H](O)C[C@@H](O)CC(=O)O[C@H]1C)C[C@H](O)[C@H]2C(=O)O [Amphotericin B]
- susceptibility of Cryptococcus neoformans (Cryptococcus neoformans): more susceptible to amphotericin B

SMILES: COC1=C(C(=O)O)C(C)C23OC24c2cc(OC(C)=O)c5c(c2NC3C#C/C=C\C#CC14)C(=O)c1c(OC(C)=O)ccc(OC(C)=O)c1C5=O (stereo not shown) [BU-3420T acetate]
- IC50 (Moser cells; Homo sapiens, Moser, 72 hours): 0.003 ng/mL
- solubility (Solubility; in organic solvents such as chloroform, methanol and ethanol, relative to BU-3420T): much improved solubility
- susceptibility of Gram-negative organisms (Gram-negative organisms): a little less susceptible
- antibacterial activity [1]: intensely potent activity

SMILES: COC1=C(C(=O)O)C(C)C23OC24c2cc(O)c5c(c2NC3C#C/C=C\C#CC14)C(=O)c1c(O)ccc(O)c1C5=O (stereo not shown) [BU-3420T]
- No. of survivor/tested ([2]; 0.01 mg/kg): 0/5
- No. of survivor/tested ([2]; 0.04 mg/kg): 0/5
- solubility (Solubility; in chloroform, ethyl acetate, methanol and ethanol): slightly soluble
- solubility (Solubility; in dimethyl sulfoxide, dimethylformamide and dioxane): soluble
- solubility (Solubility; in water and n-hexane): insoluble
- toxicity [3]: did not show any toxicity
- susceptibility of Gram-negative organisms (Gram-negative organisms): a little less susceptible
- cytotoxicity [4]: potent cytotoxicity
- cytotoxicity against VCR-sensitive vs resistant P388 cells (P388/VCR cells): same cytotoxicities
- antibacterial activity [1]: intensely potent activity

SMILES: CO[C@@]12[C@H](COC(N)=O)C3=C(C(=O)C(C)=C(N)C3=O)N1C[C@@H]1N[C@@H]12 [Mitomycin C]
- resistance of Moser and HCT-116 relative to B16-F10 (Moser cells; Moser and HCT-116 cells vs B16-F10): slightly more resistant
